This note sets out measurements from patent US20240165244A1 (Prelude Therapeutics Incorporated, priority 2022, published 2024).

Usually DC50 stands for the midpoint of the concentration-degradation curve. Low readings indicate degradation at low concentration, high ones degradation only at high concentration. Usually Dmax stands for the greatest extent of degradation seen. A lower Dmax goes with a partial loss of target.

The target of experiment [1] is T1, SMARCA2 (Homo sapiens, UniProt P51531).
T1 construct: SMARCA2-HiBiT knock-in Hela monoclonal cell (CS302366); host or cells: HeLa monoclonal cells with heterozygous HiBiT knock-in at the endogenous SMARCA2 locus
Nature of the experiment: SMARCA2 HiBiT degradation assay in HeLa cells. The following applies: 18 hours, highest concentration 10 μM. The class given is cell-based. On the procedure:
(§1) SMARCA2 HiBiT and SMARCA4 HiBiT Degradation Assay
HiBiT peptide knock-in of SMARCA2 in LgBiT expressing HEK293T cells was performed by CRISPR-mediated tagging system as described Promega. The homozygous HiBiT knock-in on c-terminus SMARCA2 was confirmed by sanger sequence. SMARCA2-HiBiT knock-in Hela monoclonal cell (CS302366) and SMARCA4-HiBiT knock-in Hela monoclonal cell (CS3023226) were purchased from Promega. The heterozygous HiBiT-knock-in was confirmed by sanger sequence in both SMARCA2-HiBiT and SMARCA4-HiBiT monoclonal cells.
(§2) SMARCA2 HiBiT and SMARCA4 HiBiT Degradation Assay in HeLa Cells
Dispense 10 ul aliquot of prepared Hela-SMARCA2-HiBiT or Hela-SMARCA4-HiBiT cells (1:1 ratio of cells:Trypan Blue (#1450013, Bio-Rad)) onto cell counting slide (#145-0011, Bio-Rad) and obtain cell density and cell viability using cell counter (TC20, Bio-Rad). Remove appropriate volume of resuspended cells from culture flask to accommodate 2500 cells/well @ 20 μL/well. Transfer Hela-HiBiT cells to 50 mL conical (#430290, Corning). Spin down at 1000 rpm for 5 min using tabletop centrifuge (SPINCHRON 15, Beckman). Discard supernatant and resuspend cell pellet in modified EMEM (#30-2003, ATCC) cell culture media containing 10% FBS (F2422-500ML, Sigma), and 1× Penicillin/Streptomycin ([…]) (30-002-CI, Corning) to a cell density of 125,000 cells/mL. Dispense 20 μLof resuspended Hela-HiBit cells per well in 384-well TC treated plate (#12-565-343, Thermo Scientific) using standard cassette (#50950372, Thermo Scientific) on Multidrop Combi (#5840310, Thermo Scientific) inside laminar flow cabinet.
Compounds were dissolved in DMSO to make 10 mM stock and 3-fold series dilutions were further conducted keeping the highest concentration 10 μM. Dispense test compounds onto plates using digital liquid dispenser (D300E, Tecan). Incubate plates in humidified tissue culture incubator @37° C. for 18 hours. Add 20 μL of prepared Nano-Glo® HiBiT Lytic detection buffer (N3050, Promega) to each well of 384-well plate using small tube cassette (#24073295, Thermo Scientific) on Multidrop Combi, incubate @ RT for 30-60 min. Read plates on microplate reader (Envision 2105, PerkinElmer) using 384 well Ultra-Sensitive luminescence mode. Raw data files and compound information reports are swept into centralized data lake and deconvoluted using automated scripts designed by TetraScience, Inc. Data analysis, curve-fitting and reporting done in Dotmatics Informatics Suite using Screening Ultra module.

Experiment [2] addresses T2, SMARCA4 (Homo sapiens, UniProt P51532).
T2 construct: SMARCA4-HiBiT knock-in Hela monoclonal cell (CS3023226); host or cells: HeLa monoclonal cells with heterozygous HiBiT knock-in at the endogenous SMARCA4 locus
Nature of the experiment: SMARCA4 HiBiT degradation assay in HeLa cells. The class given is cell-based. The following applies: 18 hours, highest concentration 10 μM. As for the experimental part: as §1
HiBiT peptide knock-in of SMARCA2 in LgBiT expressing HEK293T cells was performed by CRISPR-mediated tagging system as described Promega. […] SMARCA2-HiBiT knock-in Hela monoclonal cell (CS302366) and SMARCA4-HiBiT knock-in Hela monoclonal cell (CS3023226) were purchased from Promega.
as §2
Remove appropriate volume of resuspended cells from culture flask to accommodate 2500 cells/well @ 20 μL/well. […] Spin down at 1000 rpm for 5 min using tabletop centrifuge (SPINCHRON 15, Beckman).
Dispense test compounds onto plates using digital liquid dispenser (D300E, Tecan). Incubate plates in humidified tissue culture incubator @37° C. for 18 hours. […] Raw data files and compound information reports are swept into centralized data lake and deconvoluted using automated scripts designed by TetraScience, Inc. Data analysis, curve-fitting and reporting done in Dotmatics Informatics Suite using Screening Ultra module.
A general note: HiBiT is a short tag that completes a luciferase, so light tracks the accessible tagged protein.

T1 sequence (P51531 whole entry): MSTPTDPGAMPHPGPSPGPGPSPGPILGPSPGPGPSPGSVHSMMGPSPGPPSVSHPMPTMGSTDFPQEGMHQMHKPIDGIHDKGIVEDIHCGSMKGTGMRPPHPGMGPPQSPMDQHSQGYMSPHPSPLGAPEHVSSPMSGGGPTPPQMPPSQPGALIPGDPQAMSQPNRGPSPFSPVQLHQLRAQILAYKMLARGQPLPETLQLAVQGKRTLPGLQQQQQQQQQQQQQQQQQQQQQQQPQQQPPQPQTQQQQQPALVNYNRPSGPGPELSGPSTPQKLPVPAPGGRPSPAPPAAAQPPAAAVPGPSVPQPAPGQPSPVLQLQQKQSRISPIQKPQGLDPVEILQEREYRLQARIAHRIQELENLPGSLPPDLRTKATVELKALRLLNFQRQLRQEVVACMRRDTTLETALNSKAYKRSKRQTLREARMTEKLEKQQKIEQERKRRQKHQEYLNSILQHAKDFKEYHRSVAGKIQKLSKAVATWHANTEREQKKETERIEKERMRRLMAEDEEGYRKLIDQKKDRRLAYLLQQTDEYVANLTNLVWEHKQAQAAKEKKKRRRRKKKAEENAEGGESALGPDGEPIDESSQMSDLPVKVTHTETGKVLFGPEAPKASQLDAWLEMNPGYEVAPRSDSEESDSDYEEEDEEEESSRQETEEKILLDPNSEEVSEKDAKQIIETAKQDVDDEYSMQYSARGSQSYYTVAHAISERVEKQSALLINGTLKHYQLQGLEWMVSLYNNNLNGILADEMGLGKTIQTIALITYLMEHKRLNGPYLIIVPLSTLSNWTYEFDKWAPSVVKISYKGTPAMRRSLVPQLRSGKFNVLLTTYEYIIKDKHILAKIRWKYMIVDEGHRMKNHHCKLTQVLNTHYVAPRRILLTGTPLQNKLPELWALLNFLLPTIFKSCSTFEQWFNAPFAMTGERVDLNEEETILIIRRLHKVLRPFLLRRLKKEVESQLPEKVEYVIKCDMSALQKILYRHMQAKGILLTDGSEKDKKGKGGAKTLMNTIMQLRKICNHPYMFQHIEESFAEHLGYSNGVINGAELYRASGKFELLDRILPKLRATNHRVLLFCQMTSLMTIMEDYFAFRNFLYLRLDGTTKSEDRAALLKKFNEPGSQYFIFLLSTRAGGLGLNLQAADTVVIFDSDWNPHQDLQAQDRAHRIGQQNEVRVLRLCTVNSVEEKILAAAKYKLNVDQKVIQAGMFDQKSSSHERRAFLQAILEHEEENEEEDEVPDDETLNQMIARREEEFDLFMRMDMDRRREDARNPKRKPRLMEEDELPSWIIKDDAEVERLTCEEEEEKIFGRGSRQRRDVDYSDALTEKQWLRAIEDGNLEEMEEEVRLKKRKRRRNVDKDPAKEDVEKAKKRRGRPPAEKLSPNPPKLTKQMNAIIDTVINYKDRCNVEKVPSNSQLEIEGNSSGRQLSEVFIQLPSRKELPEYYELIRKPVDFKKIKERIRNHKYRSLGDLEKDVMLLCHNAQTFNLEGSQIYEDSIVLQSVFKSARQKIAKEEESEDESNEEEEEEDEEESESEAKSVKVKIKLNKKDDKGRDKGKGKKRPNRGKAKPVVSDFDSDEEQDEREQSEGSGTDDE
T2 sequence (P51532 whole entry): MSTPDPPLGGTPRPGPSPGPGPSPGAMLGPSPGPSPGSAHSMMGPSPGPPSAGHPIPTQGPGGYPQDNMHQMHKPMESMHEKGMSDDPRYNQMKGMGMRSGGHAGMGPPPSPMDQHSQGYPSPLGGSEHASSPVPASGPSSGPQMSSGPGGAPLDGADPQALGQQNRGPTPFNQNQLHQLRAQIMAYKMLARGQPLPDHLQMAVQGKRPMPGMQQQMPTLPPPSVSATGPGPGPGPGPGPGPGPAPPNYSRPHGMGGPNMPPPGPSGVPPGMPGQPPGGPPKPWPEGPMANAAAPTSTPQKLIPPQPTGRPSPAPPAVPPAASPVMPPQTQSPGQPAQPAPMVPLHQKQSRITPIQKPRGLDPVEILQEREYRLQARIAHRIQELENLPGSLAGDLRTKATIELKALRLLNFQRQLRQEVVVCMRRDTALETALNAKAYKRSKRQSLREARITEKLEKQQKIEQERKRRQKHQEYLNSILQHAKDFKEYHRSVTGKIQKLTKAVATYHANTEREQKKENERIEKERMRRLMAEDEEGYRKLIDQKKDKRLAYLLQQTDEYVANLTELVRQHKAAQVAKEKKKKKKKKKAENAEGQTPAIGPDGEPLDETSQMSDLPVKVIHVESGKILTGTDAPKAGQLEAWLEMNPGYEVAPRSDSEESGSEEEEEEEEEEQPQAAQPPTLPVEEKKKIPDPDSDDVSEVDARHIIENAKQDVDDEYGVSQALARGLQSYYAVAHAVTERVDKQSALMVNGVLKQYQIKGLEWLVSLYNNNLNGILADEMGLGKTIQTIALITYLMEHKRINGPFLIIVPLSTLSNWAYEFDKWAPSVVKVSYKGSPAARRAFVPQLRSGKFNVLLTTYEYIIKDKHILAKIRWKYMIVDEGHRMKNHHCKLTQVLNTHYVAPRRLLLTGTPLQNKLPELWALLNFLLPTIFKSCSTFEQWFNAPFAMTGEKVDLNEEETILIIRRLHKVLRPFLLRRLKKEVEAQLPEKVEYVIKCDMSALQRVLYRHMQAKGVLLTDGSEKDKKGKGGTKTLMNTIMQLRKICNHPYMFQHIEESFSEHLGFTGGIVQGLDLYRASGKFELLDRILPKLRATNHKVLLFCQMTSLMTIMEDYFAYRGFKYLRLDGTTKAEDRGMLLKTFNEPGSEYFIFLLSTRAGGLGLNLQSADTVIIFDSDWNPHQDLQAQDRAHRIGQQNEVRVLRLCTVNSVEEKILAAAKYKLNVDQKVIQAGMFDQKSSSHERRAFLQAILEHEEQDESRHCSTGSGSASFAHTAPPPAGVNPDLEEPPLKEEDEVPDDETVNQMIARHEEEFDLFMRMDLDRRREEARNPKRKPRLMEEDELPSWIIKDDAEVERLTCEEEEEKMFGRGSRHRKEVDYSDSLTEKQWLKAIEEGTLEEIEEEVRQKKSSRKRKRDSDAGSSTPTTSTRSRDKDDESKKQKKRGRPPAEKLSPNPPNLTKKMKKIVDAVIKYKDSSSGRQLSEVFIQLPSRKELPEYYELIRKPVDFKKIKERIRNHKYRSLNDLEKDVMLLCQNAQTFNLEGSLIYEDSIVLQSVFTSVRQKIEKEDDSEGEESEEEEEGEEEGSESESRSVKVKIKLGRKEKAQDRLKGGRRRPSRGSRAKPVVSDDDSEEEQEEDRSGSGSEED

As to `Cc1cc(O[C@@H]2C[C@@H]3CNc4nnc(-c5cccc(Cl)c5O)cc4N3C2)ccc1CN1CCN(c2ccc3c(c2)C(=O)N(C2CCC(=O)NC2=O)C3)CC1` (stereo partly drawn) [Example 10, 3-(6-(4-(4-(((6aR,8R)-2-(3-chloro-2-hydroxyphenyl)-5,6,6a,7,8,9-hexahydropyrrolo[1′,2′:4,5]pyrazino[2,3-c]pyridazin-8-yl)oxy)-2-methylbenzyl)piperazin-1-yl)-1-oxoisoindolin-2-yl)piperidine-2,6-dione], in experiment [1], the DC50 is < 100 nM and the Dmax is > 75%. Further, in experiment [2], the 50% degradation concentration (DC50) was > 1000 nM and the Dmax lay within 50 to 75%.
In the same order, the values of `CC[C@@]12CNc3nnc(-c4cccc(F)c4O)cc3N1C[C@H](Oc1cnc(CN3CCN(c4ccc5c(c4)C(=O)N([C@H]4CCC(=O)NC4=O)C5)CC3)c(C)n1)C2` [Example 57, (S)-3-(6-(4-((5-(((6aR,8R)-6a-ethyl-2-(3-fluoro-2-hydroxyphenyl)-5,6,6a,7,8,9-hexahydropyrrolo[1′,2′:4,5]pyrazino[2,3-c]pyridazin-8-yl)oxy)-3-methylpyrazin-2-yl)methyl)piperazin-1-yl)-1-oxoisoindolin-2-yl)piperidine-2,6-dione] are < 100 nM, > 75%, 100 to 1000 nM and < 50%.
With `Cc1nc(O[C@H]2CN3c4cc(-c5cccc(F)c5O)nnc4NC[C@@]3(C)C2)nc(C)c1CN1CCN(c2ccc3c(c2)C(=O)N([C@H]2CCC(=O)NC2=O)C3)CC1` [Example 75, (S)-3-(6-(4-((2-(((6aR,8R)-2-(3-fluoro-2-hydroxyphenyl)-6a-methyl-5,6,6a,7,8,9-hexahydropyrrolo[1′,2′:4,5]pyrazino[2,3-c]pyridazin-8-yl)oxy)-4,6-dimethylpyrimidin-5-yl)methyl)piperazin-1-yl)-1-oxoisoindolin-2-yl)piperidine-2,6-dione], in experiment [1], the DC50 was < 100 nM and the maximal degradation (Dmax) was > 75%. Also, in experiment [2], the half-maximal degradation concentration (DC50) was in the range of 100 to 1000 nM and the greatest degradation seen (Dmax) is < 50%.
On the same counts, the results for `Cc1cc(O[C@@H]2C[C@@H]3CNc4nnc(-c5cc(F)cc(F)c5O)cc4N3C2)ccc1CN1CCN(c2ccc3c(c2)C(=O)N(C2CCC(=O)NC2=O)C3)CC1` (stereo partly drawn) [Example 7, 3-(6-(4-(4-(((6aR,8R)-2-(3,5-difluoro-2-hydroxyphenyl)-5,6,6a,7,8,9-hexahydropyrrolo[1′,2′:4,5]pyrazino[2,3-c]pyridazin-8-yl)oxy)-2-methylbenzyl)piperazin-1-yl)-1-oxoisoindolin-2-yl)piperidine-2,6-dione] are < 100 nM, > 75%, < 100 nM and 50 to 75%.
Take `O=C1CCC(N2Cc3ccc(N4CCN(Cc5ccc(O[C@@H]6C[C@@H]7CNc8nnc(-c9cccc(F)c9O)cc8N7C6)cc5)CC4)cc3C2=O)C(=O)N1` (stereo partly drawn) [Example 5, 3-(6-(4-(4-(((6aR,8R)-2-(3-fluoro-2-hydroxyphenyl)-5,6,6a,7,8,9-hexahydropyrrolo[1′,2′:4,5]pyrazino[2,3-c]pyridazin-8-yl)oxy)benzyl)piperazin-1-yl)-1-oxoisoindolin-2-yl)piperidine-2,6-dione]: the 50% degradation concentration (DC50) in experiment [1] and in experiment [2] was < 100 nM throughout. The maximal degradation (Dmax) in experiment [1] and in experiment [2] was > 75% in each case.
For `Cc1cc(O[C@@H]2C[C@H]3CNc4nnc(-c5cccc(F)c5O)cc4N3C2)ccc1CN1CCN(c2ccc3c(c2)C(=O)N(C2CCC(=O)NC2=O)C3)CC1` (stereo partly drawn) [Example 36, 3-(6-(4-(4-(((6aS,8R)-2-(3-fluoro-2-hydroxyphenyl)-5,6,6a,7,8,9-hexahydro-pyrrolo[1′,2′:4,5]pyrazino[2,3-c]pyridazin-8-yl)oxy)-2-methylbenzyl)piperazin-1-yl)-1-oxoisoindolin-2-yl)piperidine-2,6-dione], the DC50 in experiment [1] and in experiment [2] was < 100 nM throughout. In addition, the Dmax in experiment [1] and in experiment [2] was > 75% in each case.
`O=C1CCC(N2Cc3ccc(N4CCN(Cc5cnc(O[C@H]6CN7c8cc(-c9cccc(F)c9O)nnc8NC[C@]7(C(F)F)C6)cn5)CC4)cc3C2=O)C(=O)N1` (stereo partly drawn) [Example 52, 3-(6-(4-((5-(((6aS,8R)-6a-(difluoromethyl)-2-(3-fluoro-2-hydroxyphenyl)-5,6,6a,7,8,9-hexahydropyrrolo[1′,2′:4,5]pyrazino[2,3-c]pyridazin-8-yl)oxy)pyrazin-2-yl)methyl)piperazin-1-yl)1-oxoisoindolin-2-yl)piperidine-2,6-dione]: the figures for the DC50 in experiment [1] and in experiment [2] were < 100 nM and > 1000 nM, respectively. For the same compound, the greatest degradation seen (Dmax) is > 75% in experiment [1] and < 50% in experiment [2].
In the same order, the values of `Cc1cc(O[C@H]2CN3c4cc(-c5cccc(F)c5O)nnc4NC[C@]3(C)C2)c(C)nc1CN1CCN(c2ccc3c(c2)C(=O)N([C@H]2CCC(=O)NC2=O)C3)CC1` [Example 80, (S)-3-(6-(4-((5-(((6aS,8R)-2-(3-fluoro-2-hydroxyphenyl)-6a-methyl-5,6,6a,7,8,9-hexahydropyrrolo[1′,2′:4,5]pyrazino[2,3-c]pyridazin-8-yl)oxy)-3,6-dimethylpyridin-2-yl)methyl)piperazin-1-yl)-1-oxoisoindolin-2-yl)piperidine-2,6-dione] are < 100 nM, < 100 nM, > 75% and 50 to 75%.
On the same counts, the results for `Cc1nc(O[C@H]2CN3c4cc(-c5cccc(F)c5O)nnc4NC[C@]3(C(F)F)C2)nc(C)c1CN1CCN(c2ccc3c(c2)C(=O)N(C2CCC(=O)NC2=O)C3)CC1` (stereo partly drawn) [Example 41, 3-(6-(4-((2-(((6aS,8R)-6a-(Difluoromethyl)-2-(3-fluoro-2-hydroxy-phenyl)-5,6,6a,7,8,9-hexahydropyrrolo [1′,2′:4,5]pyrazino[2,3-c]pyridazin-8-yl)oxy)-4,6-dimethylpyrimidin-5-yl)methyl)piperazin-1-yl)-1-oxoisoindolin-2-yl)piperidine-2,6-dione] are < 100 nM, 100 to 1000 nM, > 75% and < 50%.
In the same order, the values of `CCc1nc(CN2CCN(c3ccc4c(c3)C(=O)N([C@H]3CCC(=O)NC3=O)C4)CC2)cnc1O[C@H]1CN2c3cc(-c4cccc(F)c4O)nnc3NC[C@@]2(CF)C1` [Example 67, (S)-3-(6-(4-((6-ethyl-5-(((6aR,8R)-2-(3-fluoro-2-hydroxyphenyl)-6a-(fluoromethyl)-5,6,6a,7,8,9-hexahydropyrrolo[1′,2′:4,5]pyrazino[2,3-c]pyridazin-8-yl)oxy)pyrazin-2-yl)methyl)piperazin-1-yl)-1-oxoisoindolin-2-yl)piperidine-2,6-dione] are < 100 nM, > 1000 nM, > 75% and < 50%.
Regarding `Cc1c(CN2CCN(c3ccc4c(c3)C(=O)N(C3CCC(=O)NC3=O)C4)CC2)ccc(O[C@@H]2C[C@@H]3CNc4nnc(-c5cc(F)cc(F)c5O)cc4N3C2)c1C` (stereo partly drawn) [Example 18, 3-(6-(4-(4-(((6aR,8R)-2-(3,5-difluoro-2-hydroxyphenyl)-5,6,6a,7,8,9-hexahydropyrrolo[1′,2′:4,5]pyrazino[2,3-c]pyridazin-8-yl)oxy)-2,3-dimethylbenzyl)piperazin-1-yl)-1-oxoisoindolin-2-yl)piperidine-2,6-dione], in experiment [1], the half-maximal degradation concentration (DC50) was < 100 nM and the Dmax was > 75%. Also, in experiment [2], the 50% degradation concentration (DC50) is < 100 nM and the Dmax is > 75%.
